target: T1, KRAS G12C and cRAF interaction (Homo sapiens, UniProt P01116, C118S/C51S/C80L/G12C); assay: Inhibition of KRAS G12C and cRAF binding (AlphaScreen); format: biochemical; conditions: KRAS G12C (Cys-light, aa 1-169) preloaded with GMPPNP, cRaf RBD (aa 50-131), 2 hours incubation
T1 construct: truncated version comprising amino acids 1-169
How it was run: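 Biotin-AviTag KRAS G12C (Cys-light C51S/C80L/C118S, aa 1-169, GMPPNP-loaded; 0.5 nM final)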

T1 sequence (P01116 1-169 isoform P01116-2 G12C/C51S/C80L/C118S): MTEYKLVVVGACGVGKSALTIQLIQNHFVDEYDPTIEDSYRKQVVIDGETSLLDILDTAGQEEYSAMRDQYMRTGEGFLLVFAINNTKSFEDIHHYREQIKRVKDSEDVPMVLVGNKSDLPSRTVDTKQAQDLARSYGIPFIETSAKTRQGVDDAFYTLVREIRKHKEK

IC50 [nM] | SMILES
100 to 500 | O=C(C#CCN1CC2CCC(C1)O2)N1CCN(c2nc(OC[C@@]34CCCN3C[C@H](F)C4)nc3c(F)c(-c4cccc5cccc(Cl)c45)ncc23)CC12COC2 [Example 47, 4-(8-oxa-3-azabicyclo[3.2.1]octan-3-yl)-1-(8-(7-(8-chloronaphthalen-1-yl)-8-fluoro-2-(((2R,7aS)-2-fluorotetrahydro-1H-pyrrolizin-7a(5H)-yl)methoxy)pyrido[4,3-d]pyrimidin-4-yl)-2-oxa-5,8-diazaspiro[3.5]nonan-5-yl) but-2-yn-1-one]
10 to 100 | C#Cc1c(F)ccc2cccc(-c3ncc4c(N5CCN(C(=O)/C=C/c6cc(C)nc(C)n6)C6(COC6)C5)nc(OC[C@@]56CCCN5C[C@H](F)C6)nc4c3F)c12 [Example 48, (E)-3-(2,6-dimethylpyrimidin-4-yl)-1-(8-(7-(8-ethynyl-7-fluoronaphthalen-1-yl)-8-fluoro-2-(((2R,7aS)-2-fluorotetrahydro-1H-pyrrolizin-7a(5H)-yl)methoxy)pyrido[4,3-d]pyrimidin-4-yl)-2-oxa-5,8-diazaspiro[3.5]nonan-5-yl) prop-2-en-1-one]
< 10 | C#Cc1c(F)ccc2cccc(-c3ncc4c(N5CCN(C(=O)/C(F)=C/c6ccnc(C)n6)C6(COC6)C5)nc(OC[C@@]56CCCN5C[C@H](F)C6)nc4c3F)c12 [Example 49, (Z)-1-(8-(7-(8-ethynyl-7-fluoronaphthalen-1-yl)-8-fluoro-2-(((2R,7aS)-2-fluorotetrahydro-1H-pyrrolizin-7a(5H)-yl)methoxy)pyrido[4,3-d]pyrimidin-4-yl)-2-oxa-5,8-diazaspiro[3.5]nonan-5-yl)-2-fluoro-3-(2-methylpyrimidin-4-yl) prop-2-en-1-one]
< 10 | C#Cc1c(F)ccc2cccc(-c3ncc4c(N5CCN(C(=O)C=C)C6(COC6)C5)nc(OC[C@@]56CCCN5C[C@H](F)C6)nc4c3F)c12 [Example 50, 1-(8-(7-(8-ethynyl-7-fluoronaphthalen-1-yl)-8-fluoro-2-(((2R,7aS)-2-fluorotetrahydro-1H-pyrrolizin-7a(5H)-yl)methoxy)pyrido[4,3-d]pyrimidin-4-yl)-2-oxa-5,8-diazaspiro[3.5]nonan-5-yl) prop-2-en-1-one]
10 to 100 | C=CC(=O)N1CCN(c2nc(OC[C@@]34CCCN3C[C@H](F)C4)nc3c(F)c(-c4c(Cl)c(C)cc5[nH]ncc45)ncc23)CC12COC2 [Example 51, 1-(8-(7-(5-chloro-6-methyl-1H-indazol-4-yl)-8-fluoro-2-(((2R,7aS)-2-fluorotetrahydro-1H-pyrrolizin-7a(5H)-yl)methoxy)pyrido[4,3-d]pyrimidin-4-yl)-2-oxa-5,8-diazaspiro[3.5]nonan-5-yl) prop-2-en-1-one]
≥ 500 | C=CC(=O)N1CCN(c2nc(OC[C@@]34CCCN3C[C@H](F)C4)nc3c(F)c(-c4c(C)cc(F)c5[nH]ncc45)ncc23)CC12COC2 [Example 52, 1-(8-(8-fluoro-7-(7-fluoro-5-methyl-1H-indazol-4-yl)-2-(((2R,7aS)-2-fluorotetrahydro-1H-pyrrolizin-7a(5H)-yl)methoxy)pyrido[4,3-d]pyrimidin-4-yl)-2-oxa-5,8-diazaspiro[3.5]nonan-5-yl) prop-2-en-1-one]
10 to 100 | C=CC(=O)N1C(C)CN(c2nc(OC[C@@]34CCCN3C[C@H](F)C4)nc3c(F)c(-c4cccc5cccc(Cl)c45)ncc23)CC12COC2 (stereo partly drawn) [Example 53, 1-(8-(7-(8-chloronaphthalen-1-yl)-8-fluoro-2-(((2R,7aS)-2-fluorotetrahydro-1H-pyrrolizin-7a(5H)-yl)methoxy)pyrido[4,3-d]pyrimidin-4-yl)-6-methyl-2-oxa-5,8-diazaspiro[3.5]nonan-5-yl) prop-2-en-1-one]
< 10 | C=CC(=O)N1CCN(c2nc(OC[C@@]34CCCN3C[C@H](F)C4)nc3c(F)c(-c4cc(O)cc(Cl)c4C(F)(F)F)ncc23)CC12COC2 [Example 54, 1-(8-(7-(3-chloro-5-hydroxy-2-(trifluoromethyl)phenyl)-8-fluoro-2-(((2R,7aS)-2-fluorotetrahydro-1H-pyrrolizin-7a(5H)-yl)methoxy)pyrido[4,3-d]pyrimidin-4-yl)-2-oxa-5,8-diazaspiro[3.5]nonan-5-yl) prop-2-en-1-one]
< 10 | CN(C)C/C=C/C(=O)N1CCN(c2nc(OC[C@@]34CCCN3C[C@H](F)C4)nc3c(F)c(-c4cc(O)cc(Cl)c4C4CC4)ncc23)CC12COC2 [Example 55, (E)-1-(8-(7-(3-chloro-2-cyclopropyl-5-hydroxyphenyl)-8-fluoro-2-(((2R,7aS)-2-fluorotetrahydro-1H-pyrrolizin-7a(5H)-yl)methoxy)pyrido[4,3-d]pyrimidin-4-yl)-2-oxa-5,8-diazaspiro[3.5]nonan-5-yl)-4-(dimethylamino)but-2-en-1-one]
< 10 | O=C(/C=C/CN1[C@@H]2CC[C@H]1COC2)N1CCN(c2nc(OC[C@@]34CCCN3C[C@H](F)C4)nc3c(F)c(-c4cccc(Cl)c4C(F)(F)F)ncc23)CC12COC2 [Example 56, (E)-4-((1R,5S)-3-oxa-8-azabicyclo[3.2.1]octan-8-yl)-1-(8-(7-(3-chloro-2-(trifluoromethyl)phenyl)-8-fluoro-2-(((2R,7aS)-2-fluorotetrahydro-1H-pyrrolizin-7a(5H)-yl)methoxy)pyrido[4,3-d]pyrimidin-4-yl)-2-oxa-5,8-diazaspiro[3.5]nonan-5-yl) but-2-en-1-one]
10 to 100 | O=C(/C=C/CN1C[C@@H]2C[C@H]1CO2)N1CCN(c2nc(OC[C@@]34CCCN3C[C@H](F)C4)nc3c(F)c(-c4cccc(Cl)c4C(F)(F)F)ncc23)CC12COC2 [Example 57, (E)-4-((1S,4S)-2-oxa-5-azabicyclo[2.2.1]heptan-5-yl)-1-(8-(7-(3-chloro-2-(trifluoromethyl)phenyl)-8-fluoro-2-(((2R,7aS)-2-fluorotetrahydro-1H-pyrrolizin-7a(5H)-yl)methoxy)pyrido[4,3-d]pyrimidin-4-yl)-2-oxa-5,8-diazaspiro[3.5]nonan-5-yl) but-2-en-1-one]
< 10 | Cc1cc(/C=C(\F)C(=O)N2CCN(c3nc(OC[C@@]45CCCN4C[C@H](F)C5)nc4c(F)c(-c5cccc6ccc(F)c(F)c56)ncc34)CC23COC3)nc(C)n1 [Example 59, (Z)-1-(8-(7-(7,8-difluoronaphthalen-1-yl)-8-fluoro-2-(((2R,7aS)-2-fluorotetrahydro-1H-pyrrolizin-7a(5H)-yl)methoxy)pyrido[4,3-d]pyrimidin-4-yl)-2-oxa-5,8-diazaspiro[3.5]nonan-5-yl)-3-(2,6-dimethylpyrimidin-4-yl)-2-fluoroprop-2-en-1-one]
< 10 | Cc1nccc(/C=C(\F)C(=O)N2CCN(c3nc(OC[C@@]45CCCN4C[C@H](F)C5)nc4c(F)c(-c5cccc6ccc(F)c(F)c56)ncc34)CC23COC3)n1 [Example 60, (Z)-1-(8-(7-(7,8-difluoronaphthalen-1-yl)-8-fluoro-2-(((2R,7aS)-2-fluorotetrahydro-1H-pyrrolizin-7a(5H)-yl)methoxy)pyrido[4,3-d]pyrimidin-4-yl)-2-oxa-5,8-diazaspiro[3.5]nonan-5-yl)-2-fluoro-3-(2-methylpyrimidin-4-yl) prop-2-en-1-one]
≥ 500 | Cc1nccc(/C=C(\F)C(=O)N2CCN(c3nc(OC[C@@]45CCCN4C[C@H](F)C5)nc4c(F)c(-c5cccc6cccc(Cl)c56)ncc34)CC23COC3)n1 [Example 61]
< 10 | CCc1c(F)ccc2cccc(-c3ncc4c(N5CCN(C(=O)/C(F)=C/c6ccnc(C)n6)C6(COC6)C5)nc(OC[C@@]56CCCN5C[C@H](F)C6)nc4c3F)c12 [Example 62, (Z)-1-(8-(7-(8-ethyl-7-fluoronaphthalen-1-yl)-8-fluoro-2-(((2R,7aS)-2-fluorotetrahydro-1H-pyrrolizin-7a(5H)-yl)methoxy)pyrido[4,3-d]pyrimidin-4-yl)-2-oxa-5,8-diazaspiro[3.5]nonan-5-yl)-2-fluoro-3-(2-methylpyrimidin-4-yl) prop-2-en-1-one]
< 10 | C#Cc1c(F)ccc2cccc(-c3ncc4c(N5CCN(C(=O)/C(F)=C/c6cc(C)nc(C)n6)C6(COC6)C5)nc(OC[C@@]56CCCN5C[C@H](F)C6)nc4c3F)c12 [Example 63, (Z)-3-(2,6-dimethylpyrimidin-4-yl)-1-(8-(7-(8-ethynyl-7-fluoronaphthalen-1-yl)-8-fluoro-2-(((2R,7aS)-2-fluorotetrahydro-1H-pyrrolizin-7a(5H)-yl)methoxy)pyrido[4,3-d]pyrimidin-4-yl)-2-oxa-5,8-diazaspiro[3.5]nonan-5-yl)-2-fluoroprop-2-en-1-one]
< 10 | C=CC(=O)N1[C@H](C)CN(c2nc(OC[C@@]34CCCN3C[C@H](F)C4)nc3c(F)c(-c4cccc5ccc(F)c(F)c45)ncc23)CC12COC2 [Example 64, 1-((R)-8-(7-(7,8-difluoronaphthalen-1-yl)-8-fluoro-2-(((2R,7aS)-2-fluorotetrahydro-1H-pyrrolizin-7a(5H)-yl)methoxy)pyrido[4,3-d]pyrimidin-4-yl)-6-methyl-2-oxa-5,8-diazaspiro[3.5]nonan-5-yl) prop-2-en-1-one]
10 to 100 | C=CC(=O)N1CC(C)N(c2nc(OC[C@@]34CCCN3C[C@H](F)C4)nc3c(F)c(-c4cccc5cccc(Cl)c45)ncc23)CC12COC2 (stereo partly drawn) [Example 65]
10 to 100 | C#Cc1c(F)ccc2cccc(-c3ncc4c(N5CCN(C(=O)/C=C/[C@H]6CCN6C)C6(COC6)C5)nc(OC[C@@]56CCCN5C[C@H](F)C6)nc4c3F)c12 [Example 66]
10 to 100 | CN1CC[C@@H]1/C=C/C(=O)N1CCN(c2nc(OC[C@@]34CCCN3C[C@H](F)C4)nc3c(F)c(-c4cccc5ccc(F)c(F)c45)ncc23)CC12COC2 [Example 67]
< 10 | O=C(/C=C/CN1C[C@H]2C[C@@H]1CO2)N1CCN(c2nc(OC[C@@]34CCCN3C[C@H](F)C4)nc3c(F)c(-c4cccc(Cl)c4C(F)(F)F)ncc23)CC12COC2 [Example 68, (E)-4-((1R,4R)-2-oxa-5-azabicyclo[2.2.1]heptan-5-yl)-1-(8-(7-(3-chloro-2-(trifluoromethyl)phenyl)-8-fluoro-2-(((2R,7aS)-2-fluorotetrahydro-1H-pyrrolizin-7a(5H)-yl)methoxy)pyrido[4,3-d]pyrimidin-4-yl)-2-oxa-5,8-diazaspiro[3.5]nonan-5-yl) but-2-en-1-one]

From patent US20260207615A1, “FLUOROPYRIDOPYRIMIDINE AND FLUOROQUINAZOLINE DERIVATIES AND METHODS OF USE THEREOF” (Frontier Medicines Corporation, priority 2022, published 2026)
